The values below come from patent publication US7741346B2, “Angiogenesis inhibitor” (Santen Pharmaceutical Co., Ltd., priority 2001, dated 2010).

In data set [1] the test system is normal human umbilical vein endotherial cells (HUVEC). Description: VEGF-induced HUVEC proliferation (in vitro angiogenesis inhibition test). The data set is classed as cell-based. The settings on record: 10 μM test compound, 10 ng/ml VEGF, three days after adding VEGF, WST-8 absorbance at 450 nm; for inhibition at 10 µM: Homo sapiens, HUVEC, 72 h, read-out: Inhibitory rate (%) (cell growth inhibitory rate to the control); for Inhibitory rate (%) (cell growth inhibitory rate to the control): 10 µM. The method, then:
(1) Angiogenesis Inhibition Tests Using Human Endothelial Cells
The effects of the present compounds on the in vitro angiogenesis were evaluated by using vascular endothelial growth factor (VEGF)-induced normal human umbilical vein endotherial cells (HUVEC) proliferation system (Cancer Res., 59, 99-106 (1999)), wherein inhibitory effects of drugs on cell growth reactions induced by treating HUVEC with VEGF as an in vitro angiogenesis evaluation model.
The present compound was dissolved in DMSO and then diluted with a medium to prepare 40 μM test compound solution.
2×10^3 cells/well of HUVEC was seeded onto a type I collagen coated 96-well plate. After one day, 25 μl of the 40 μM test compound solution and a 0.8% DMSO solution as a control were added to each well (final concentration; 10 μM of the test compound and 0.2% of DMSO). One hour after adding the test compound, 25 μl of 40 ng/ml VEGF solution was added to each well(final concentration; 10 ng/ml of VEGF). Three days after adding VEGF, a WST-8 assay reagent (manufactured by Dojin Chemical Co., Ltd.) was added to each well in an amount of 10 μl, and absorbance at 450 nm was measured.
Calculating cell growth inhibitory rates (%) to the control, angiogenesis inhibitory rates of almost all of the test compounds were 80% or higher.
(In general: Formazan colour is commonly taken as a measure of viable cells.)

SMILES strings stand for the structures.

`CCCCCN(CCC12CC3CC(CC(C3)C1)C2)C(=O)NC/C=C/c1ccncc1` [Compound No. 1-112, (E)-1-[2-(1-Adamantyl)ethyl]-1-pentyl-3-[3-(4-pyridyl)-2-propenyl]urea]: the melting point (usually the temperature of the solid-liquid transition) fell in the range of 90 to 118 °C. Besides, the inhibition at 10 µM in data set [1] was found to be 83.2%.
For `CCCCCN(CCC12CC3CC(CC(C3)C1)C2)C(=O)NCCCc1ccncc1` [Compound No. 1-1, 1-[2-(1-Adamantyl)ethyl]-1-pentyl-3-[3-(4-pyridyl)propyl]urea], the inhibition at 10 µM in data set [1] was determined as 83.4%.
Still for that read-out and setting: then `CN(CCN(CCC12CC3CC(CC(C3)C1)C2)C(=O)NCCCc1ccncc1)C(=O)OC(C)(C)C` [Compound No. 1-26, 1-[2-(1-Adamantyl)ethyl]-[2-[N-(t-butoxycarbonyl)-N-methylamino]ethyl]-3-[3-(4-pyridyl)propyl]urea], with 79.2%.
The same measure, in the same setting: the value for `CCCCCN(CCC1CCCCC1)C(=O)NCC(C)Cc1ccncc1` (stereo not shown) [Compound No. 1-118, 1-(2-Cyclohexylethyl)-3-[2-methyl-3-(4-pyridyl)propyl]-1-pentylurea] was 81.6%; that for `CCCN(CCCC12CC3CC(CC(C3)C1)C2)C(=O)NCCCc1ccncc1` [Compound No. 1-35, 1-[3-(1-Adamantyl)propyl]-1-propyl-3-[3-(4-pyridyl)propyl]urea] was 83.7%.
The molecule `CC(CNC(=O)N(CCN(C)C(=O)OC(C)(C)C)CCC12CC3CC(CC(C3)C1)C2)Cc1ccncc1` (single isomer, unassigned; (+)) [Compound No. 1-139, (+)-1-[2-(1-Adamantyl)ethyl]-1-[2-[N-(t-butoxycarbonyl)-N-methylamino]ethyl]-3-[2-methyl-3-(4-pyridyl)propyl]urea] gave a melting point of 122.7 to 123.7 °C. For the same molecule, in data set [1], the “Inhibitory rate (%) (cell growth inhibitory rate to the control)” value was 83.1%.
For `CCCCCN(CCC12CC3CC(CC(C3)C1)C2)C(=O)CSCCc1ccncc1` [Compound No. 2-18, 2-[2-(4-Pyridyl)ethylthio]acetic acid N-[2-(1-adamantyl)ethyl]-N-pentylamide], the inhibition at 10 µM in data set [1] came out at 82.2%.
Still for that read-out and setting: the value for `CC(CNC(=O)N(CCN(C)C(=O)OC(C)(C)C)CCC12CC3CC(CC(C3)C1)C2)Cc1ccncc1` (stereo not shown) [Compound No. 1-107] was 83.2%.
For the molecule `CCCCCN(CCC12CC3CC(CC(C3)C1)C2)C(=O)NCC(C)Cc1ccncc1` (stereo not shown) [Compound No. 1-100, 1-[2-(1-Adamantyl)ethyl]-3-[2-methyl-3-(4-pyridyl)propyl]-1-pentylurea], the “Inhibitory rate (%) (cell growth inhibitory rate to the control)” value in data set [1] turned out to be 83.0%.
Regarding `CCCCCN(CCC12CC3CC(CC(C3)C1)C2)C(=O)NCC(C)Cc1ccncc1` (single isomer, unassigned; (-)) [Compound No. 1-120, (−)-1-[2-(1-Adamantyl)ethyl]-3-[2-methyl-3-(4-pyridyl)propyl]-1-pentylurea], the inhibition at 10 µM in data set [1] came to 83.1%.
On to `CCCCCN(CCC12CC3CC(CC(C3)C1)C2)C(=O)NC/C=C\c1ccncc1` [Compound No. 1-111, (Z)-1-[2-(1-Adamantyl)ethyl]-1-pentyl-3-[3-(4-pyridyl)-2-propenyl]urea], for which the inhibition at 10 µM in data set [1] stood at 83.1%.
Same read-out and setting: the value for `CCCCCN(CCC12CC3CC(CC(C3)C1)C2)C(=O)CCCCc1ccncc1` [Compound No. 2-14, 5-(4-Pyridyl)valeric acid N-[2-(1-adamantyl)ethyl]-N-pentylamide] was 83.4%.
`CCCCCN(CCC12CC3CC(CC(C3)C1)C2)C(=O)CCSCc1ccncc1` [Compound No. 2-15, 3-(4-Pyridylmethylthio)propionic acid N-[2-(1-adamantyl)ethyl]-N-pentylamide]: in data set [1], the inhibition at 10 µM came out at 83.3%.
The same measure, in the same setting: the value for `CCCCCN(CCC12CC3CC(CC(C3)C1)C2)C(=O)CCCCCc1ccncc1` [Compound No. 2-20, 6-(4-Pyridyl)caproic acid N-[2-(1-adamantyl)ethyl]-N-pentylamide] was 82.5%.
